IC50 data for 32 compounds are collected here from patent US10927105B1 (Lundbeck La Jolla Research Center, Inc., priority 2017, dated 2021).

In the assay the target is MAGL (Homo sapiens (Human), UniProt Q99685). The assay can be described thus: In vitro competitive activity-based protein profiling (human prefrontal cortex membrane fractions, FP-Rh probe), MAGL band. To be noted: read-out: MAGL IC50 (μM) (human); human prefrontal cortex membrane fractions.

The structures appear in SMILES notation.

MAGL, sequence (Q99685 whole entry): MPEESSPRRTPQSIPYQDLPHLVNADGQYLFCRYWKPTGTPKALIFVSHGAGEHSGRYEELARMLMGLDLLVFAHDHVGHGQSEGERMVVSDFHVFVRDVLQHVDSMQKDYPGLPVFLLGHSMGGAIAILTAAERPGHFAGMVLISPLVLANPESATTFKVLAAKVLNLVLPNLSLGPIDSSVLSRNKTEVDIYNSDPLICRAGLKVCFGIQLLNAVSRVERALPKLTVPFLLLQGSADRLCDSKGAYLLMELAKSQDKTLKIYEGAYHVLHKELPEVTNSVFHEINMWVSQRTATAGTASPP
Procedure: Biological Evaluation In Vitro Competitive Activity-Based Protein Profiling.
Proteomes (mouse brain membrane fraction for mouse assays; human prefrontal cortex membrane fractions for human assays) (50 mL, 1.0 mg/mL total protein concentration) were preincubated with varying concentrations of inhibitors at 37° C. After 30 min, FP-Rh (1.0 mL, 50 mM in DMSO) was added and the mixture was incubated for another 30 min at 37° C. Reactions were quenched with SDS loading buffer (15 μL-4×) and run on SDS-PAGE.

Regarding `O=C(O)c1ccn(C(=O)N2CCC3(CCN(Cc4cccc(C(F)(F)F)c4Cl)C3)CC2)n1` [Example 339, 1-(2-(2-chloro-3-(trifluoromethyl)-benzyl)-2,8-diazaspiro[4.5]-decane-8-carbonyl)-1H-pyrazole-3-carboxylic acid], the IC50 was less than 0.1 µM.
For `O=C(O)c1ccn(C(=O)N2C[C@H]3C[C@@H](Oc4cccc(-c5ccccc5)c4)C[C@H]3C2)n1` [Example 164, 1-(cis-5-([1,1′-biphenyl]-3-yloxy)-octahydrocyclopenta-[c]pyrrole-2-carbonyl)-1H-pyrazole-3-carboxylic acid], the IC50 is less than 0.1 µM.
Turning to `Cc1cc(-c2ccccc2)ccc1CN1CCN(C(=O)n2ccc(C(=O)O)n2)[C@H](C)C1` [Example 245, (R)-1-(2-methyl-4-((3-methyl-[1,1′-biphenyl]-4-yl)methyl)-piperazine-1-carbonyl)-1H-pyrazole-3-carboxylic acid], the IC50 is less than 0.1 µM.
The same measure for `O=C(O)c1nn(C(=O)N2CCC3(CCN(Cc4ccc(N5CCCC5)cc4C(F)(F)F)C3)CC2)cc1Cl` [Example 138, 4-chloro-1-(2-(4-(pyrrolidin-1-yl)-2-(trifluoromethyl)-benzyl)-2,8-diazaspiro[4.5]-decane-8-carbonyl)-1H-pyrazole-3-carboxylic acid]: less than 0.1 µM; for `O=C(O)c1ccn(C(=O)N2C[C@H]3C[C@H](OCc4cccc(C(F)(F)F)c4)C[C@H]3C2)n1` [Example 157, 1-(trans-5-((3-(trifluoromethyl)-benzyl)oxy)-octahydrocyclopenta-[c]pyrrole-2-carbonyl)-1H-pyrazole-3-carboxylic acid]: less than 0.1 µM.
For `Cc1cc(-c2ccccc2)ccc1CN1CCN(C(=O)n2ccc(C(=O)O)n2)CC1` [Example 16, 1-(4-((3-Methyl-[1,1′-biphenyl]-4-yl)methyl)piperazine-1-carbonyl)-1H-pyrazole-3-carboxylic acid], the half-maximal inhibitory concentration (IC50) is less than 0.1 µM.
With `CC(C)(O)COc1cccc(CN2CCN(C(=O)n3ccc(C(N)=O)n3)CC2)c1Cl` [Example 37, 1-(4-(2-Chloro-3-(2-hydroxy-2-methylpropoxy)benzyl)piperazine-1-carbonyl)-1H-pyrazole-3-carboxamide], the IC50 is less than 0.1 µM.
`O=C(O)c1nn(C(=O)N2CCN(Cc3cccc(Oc4ccc(F)cc4)c3)CC2)cc1Cl` [Example 320, 4-chloro-1-(4-(3-(4-fluorophenoxy)-benzyl)-piperazine-1-carbonyl)-1H-pyrazole-3-carboxylic acid]: the IC50 is less than 0.1 µM.
With `O=C(O)c1ccn(C(=O)N2C[C@H]3C[C@H](Oc4cccc(C(F)(F)F)c4)C[C@H]3C2)n1` [Example 231, 1-(trans-5-(3-(trifluoromethyl)-phenoxy)-octahydrocyclopenta-[c]pyrrole-2-carbonyl)-1H-pyrazole-3-carboxylic acid], the IC50 is less than 0.1 µM.
In the case of `O=C(O)c1ccn(C(=O)N2CCN(Cc3cccc(C(F)(F)F)c3N3CCOCC3)CC2)n1` [Example 453, 1-(4-(2-morpholino-3-(trifluoromethyl)-benzyl)-piperazine-1-carbonyl)-1H-pyrazole-3-carboxylic acid], the IC50 was less than 0.1 µM.
On to `C[C@H]1CN(Cc2cc(F)cc(Oc3ccc(Cl)cc3)c2)CCN1C(=O)n1ccc(C(=O)O)n1` [Example 347, (S)-1-(4-(3-(4-chlorophenoxy)-5-fluorobenzyl)-2-methylpiperazine-1-carbonyl)-1H-pyrazole-3-carboxylic acid], for which the IC50 is less than 0.1 µM.
As to `NC(=O)c1ccn(C(=O)N2CCC3(CCN(Cc4ccc(N5CCOCC5)cc4Cl)C3)CC2)n1` [Example 197, 1-(2-(2-chloro-4-morpholinobenzyl)-2,8-diazaspiro[4.5]-decane-8-carbonyl)-1H-pyrazole-3-carboxamide], the IC50 is less than 0.1 µM.
The same measure for `NC(=O)c1ccn(C(=O)N2CCC3(CCN(Cc4cc(Cl)cc(C(F)(F)F)c4)C3)C2)n1` (centres unmarked) [Example 433, 1-(7-(3-chloro-5-(trifluoromethyl)-benzyl)-2,7-diazaspiro[4.4]-nonane-2-carbonyl)-1H-pyrazole-3-carboxamide]: less than 0.1 µM; for `C[C@@H]1CN(Cc2ccc(C(F)(F)F)cc2N2CCCC2)CCN1C(=O)n1ccc(C(N)=O)n1` [Example 325, (R)-1-(2-methyl-4-(2-(pyrrolidin-1-yl)-4-(trifluoromethyl)-benzyl)piperazine-1-carbonyl)-1H-pyrazole-3-carboxamide]: less than 0.1 µM; for `CNC(=O)c1ccn(C(=O)N2CC3CN(Cc4cccc(C(F)(F)F)c4)CC3C2)n1` (centres unmarked) [Example 432, N-methyl-1-(5-(3-(trifluoromethyl)-benzyl)-octahydropyrrolo-[3,4-c]pyrrole-2-carbonyl)-1H-pyrazole-3-carboxamide]: less than 0.1 µM.
`O=C(O)c1ccn(C(=O)N2CCC3(CC2)CN(Cc2cc(Cl)ccc2C(F)(F)F)C3)n1` [Example 313, 1-(2-(5-chloro-2-(trifluoromethyl)-benzyl)-2,7-diazaspiro[3.5]-nonane-7-carbonyl)-1H-pyrazole-3-carboxylic acid]: the IC50 was less than 0.1 µM.
Take `Cc1cc(CN2CCCC23CCN(C(=O)n2ccc(C(=O)O)n2)CC3)cc(C(F)(F)F)c1` [Example 303, 1-(1-(3-methyl-5-(trifluoromethyl)-benzyl)-1,8-diazaspiro[4.5]-decane-8-carbonyl)-1H-pyrazole-3-carboxylic acid]: the IC50 is less than 0.1 µM.
`Cc1cn(C(=O)N2CCC3(CCN(Cc4cc(Cl)ccc4C(F)(F)F)C3)CC2)nc1C(=O)O` [Example 130, 1-(2-(5-chloro-2-(trifluoromethyl)-benzyl)-2,8-diazaspiro[4.5]-decane-8-carbonyl)-4-methyl-1H-pyrazole-3-carboxylic acid]: the IC50 was less than 0.1 µM.
In the case of `O=C(O)c1ccn(C(=O)N2CCN(Cc3ccc(Oc4ccc(Cl)cc4)cc3)CC2)n1` [Example 45, 1-(4-(4-(4-chlorophenoxy)-benzyl)piperazine-1-carbonyl)-1H-pyrazole-3-carboxylic acid], the IC50 is less than 0.1 µM.
On to `CN(Cc1ccc(C(F)(F)F)c(N2CCCC2)c1)C1(C)CCN(C(=O)n2ccc(C(=O)O)n2)CC1` [Example 385, 1-(4-methyl-4-(methyl(3-(pyrrolidin-1-yl)-4-(trifluoromethyl)-benzyl)amino)-piperidine-1-carbonyl)-1H-pyrazole-3-carboxylic acid], for which the 50% inhibitory concentration (IC50) is less than 0.1 µM.
Regarding `O=C(O)c1ccn(C(=O)N2CCN(Cc3ccc(C(F)(F)F)cc3N3CC[C@H](F)C3)CC2)n1` [Example 92, (S)-1-(4-(2-(3-fluoropyrrolidin-1-yl)-4-(trifluoromethyl)-benzyl)-piperazine-1-carbonyl)-1H-pyrazole-3-carboxylic acid], the IC50 is less than 0.1 µM.
As to `O=C(O)c1nn(C(=O)N2CC3CN(Cc4cc(Cl)cc(C(F)(F)F)c4)CC3C2)cc1Cl` (centres unmarked) [Example 357, 4-chloro-1-(5-(3-chloro-5-(trifluoromethyl)-benzyl)-octahydropyrrolo-[3,4-c]pyrrole-2-carbonyl)-1H-pyrazole-3-carboxylic acid], the IC50 was less than 0.1 µM.
With `C[C@H]1CC[C@H](C)N1c1cc(C(F)(F)F)ccc1CN1CCN(C(=O)n2ccc(C(=O)O)n2)CC1` [Example 360, 1-(4-(2-((2S,5S)-2,5-dimethylpyrrolidin-1-yl)-4-(trifluoromethyl)-benzyl)piperazine-1-carbonyl)-1H-pyrazole-3-carboxylic acid] the figure was less than 0.1 µM; with `O=C(O)c1nn(C(=O)N2CCN(Cc3cc(F)cc(Oc4ccc(Cl)cc4)c3)CC2)cc1C(F)(F)F` [Example 408, 1-(4-(3-(4-chlorophenoxy)-5-fluorobenzyl)-piperazine-1-carbonyl)-4-(trifluoromethyl)-1H-pyrazole-3-carboxylic acid], less than 0.1 µM; with `C[C@H]1CN(Cc2cc(F)cc(Oc3ccccc3Cl)c2)CCN1C(=O)n1ccc(C(=O)O)n1` [Example 349, (S)-1-(4-(3-(2-chlorophenoxy)-5-fluorobenzyl)-2-methylpiperazine-1-carbonyl)-1H-pyrazole-3-carboxylic acid], less than 0.1 µM.
For the compound `O=C(O)c1ccn(C(=O)N2CCN(Cc3cccc(Oc4ccnc(C(F)(F)F)c4)c3)CC2)n1` [Example 355, 1-(4-(3-((2-(trifluoromethyl)-pyridin-4-yl)oxy)benzyl)-piperazine-1-carbonyl)-1H-pyrazole-3-carboxylic acid], the IC50 is less than 0.1 µM.
The same measure for `O=C(O)c1ccn(C(=O)N2CCC3(CCN(Cc4cc(Cl)cc(Cl)c4)C3)CC2)n1` [Example 162, 1-(2-(3,5-dichlorobenzyl)-2,8-diazaspiro[4.5]-decane-8-carbonyl)-1H-pyrazole-3-carboxylic acid]: less than 0.1 µM; for `O=C(O)c1nn(C(=O)N2CCN(Cc3ccc(C(F)(F)F)cc3N3CCCC3)CC2)cc1Cl` [Example 443, 4-chloro-1-(4-(2-(pyrrolidin-1-yl)-4-(trifluoromethyl)-benzyl)-piperazine-1-carbonyl)-1H-pyrazole-3-carboxylic acid]: less than 0.1 µM; for `O=C(O)c1nn(C(=O)N2CCN(Cc3cc(Cl)cc(-c4cncnc4)c3)CC2)cc1Cl` [Example 323, 4-chloro-1-(4-(3-chloro-5-(pyrimidin-5-yl)benzyl)-piperazine-1-carbonyl)-1H-pyrazole-3-carboxylic acid]: less than 0.1 µM.
For the compound `CC(C)(O)CN(Cc1cccc(C(F)(F)F)c1)C1CCN(C(=O)n2ccc(C(N)=O)n2)CC1` [Example 36, 1-(4-((2-Hydroxy-2-methylpropyl)(3-(trifluoromethyl)benzyl)amino)piperidine-1-carbonyl)-1H-pyrazole-3-carboxamide], the IC50 was less than 0.1 µM.
For the compound `O=C(O)c1nn(C(=O)N2C[C@H]3C[C@H](OCc4cc(F)cc(Cl)c4)C[C@H]3C2)cc1Cl` [Example 296, 4-chloro-1-(trans-5-((3-chloro-5-fluorobenzyl)oxy)-octahydrocyclopenta-[c]pyrrole-2-carbonyl)-1H-pyrazole-3-carboxylic acid], the 50% inhibitory concentration (IC50) was less than 0.1 µM.
For `NC(=O)c1ccn(C(=O)N2CCN(Cc3cnccc3C(F)(F)F)CC2)n1` [Example 175, 1-(4-((4-(trifluoromethyl)-pyridin-3-yl)methyl)-piperazine-1-carbonyl)-1H-pyrazole-3-carboxamide], the IC50 was less than 0.1 µM.

As usually defined, the IC50 is the concentration needed to halve the response being measured.
